Assay: DPPH radical scavenging antioxidant test
Format: biochemical
Conditions: 517 nm; for Inhibition (radical scavenging inhibition): compound 3 μM in ethanol, 0.2 mL DPPH (0.75 mM), 30 min incubation in the dark
Method: The antioxidant properties of the 8-(3-bromobenzylideneamino)naphthalene-1,3-disulfonic acid were studied by adding 0.2 mL DPPH (0.75 mM)) to compound 8-(3-bromobenzylideneamino)naphthalene-1,3-disulfonic acid (III) (3 μM) in ethanol. After 30 min of incubation in the dark, the absorbance was read against a blank at 517 nm. Ascorbic acid (vitamin C) was used as standard antioxidants (positive control). A blank sample was prepared by 0.2 ml of DPPH in 3 ml ethanol. A negative control sample was run using ethanol instead of the sample. The radical scavenging inhibition was calculated using the following equation: […]

Row | SMILES | antioxidant potential in DPPH test compared to vitamin C (in words) (DPPH in vitro test, vitamin C as positive control) | Inhibition (radical scavenging inhibition)
1 | O=S(=O)(O)c1cc(S(=O)(=O)O)c2c(/N=C/c3cccc(Br)c3)cccc2c1 [Product III, 8-(3-bromobenzylideneamino)naphthalene-1,3-disulfonic acid] | high potential as an antioxidant compared to vitamin C | 50%
2 | O=C1O[C@H]([C@@H](O)CO)C(O)=C1O [vit c, Ascorbic acid, reference compound] | – | 74%
